Tests used:
[1] = test system: CT26 (mouse colon carcinoma cell line); experiment: MTT assay cytotoxicity, CT26; format: cell-based
Protocol: (§1) Oxaliplatin was included for comparison as a reference substance, and was tested under the same conditions.
(§2) The cells were harvested from the culture flasks during the exponential growth phase, counted and 5 × 10^3 cells/well were seeded into 96-well culture plates. About 24 h later, after the cell adherence, each well was treated with 100 μL of tested complexes, which had been serially diluted two-fold in medium to concentrations ranging from 300 to 2.3 μM. All cells were incubated at 37 °C in an atmosphere containing 5% CO2 and at absolute humidity for 24 and 72 h. After incubation, the culture medium was removed from each well and MTT solution (5 mg/mL in phosphate buffered saline (PBS)) was added to each well and cells were incubated 4 h under culture conditions. The cell-free supernatants were suctioned off, and dimethyl sulfoxide (DMSO) (150 μL) and glycine buffer (20 μL) were added to dissolve the formazan crystals. The plates were shaken for 10 min. The optical density of each well was determined at 595 nm using a multiplate reader (Zenyth 3100, Anthos Labtec Instruments GmbH, Salzburg, Austria). Experiments were performed in triplicates and repeated in three independent series. The percentage of cell viability was determined by comparison with untreated controls according to formula: % of viable cells = (E − B)/(S − B) × 100, where B is for the background of the medium alone, S is for the total viability/spontaneous death of untreated target cells, and E is for the experimental well. The IC50 values were determined by plotting the percentage viability versus concentration on a logarithmic graph and reading off the concentration at which 50% of cells remained viable relative to the control.

[2] = test system: HCT116 (human colon carcinoma cell line); experiment: MTT assay cytotoxicity, HCT116; format: cell-based
Protocol: as §1, §2

[3] = test system: SW480 (human colon carcinoma cell line); experiment: MTT assay cytotoxicity, SW480; format: cell-based
Protocol: as §1, §2

HCT116 cells [4] = experiment: LDH release assay, HCT116; format: cell-based, human; conditions: HCT116, 300 μM, 24 h
Protocol: (§3) The cytotoxicity of used complexes was examined by an In Vitro Toxicology Assay Kit, Lactic Dehydrogenase based (Sigma-Aldrich, St. Lous, MO, USA). Cells were prepared and treated with complexes in the same manner as for the MTT assay. Additional wells were prepared as high control cells were treated with 1/10 volume of LDH Assay Lysis Solution for 45 min. Cells exposed to medium were used as low controls. After treatment, supernatant (50 μL) was transferred to new plate and incubated with an equivalent volume of Lactate Dehydrogenase Assay Mixture (which was prepared by mixing equal volumes of LDH Assay Substrate Solution, LDH Assay Dye Solution, and 1’ LDH Assay Cofactor Preparation. After incubating the plates in the dark for 30 min at room temperature, reaction was terminated by the addition of 10 μL of 1 N HCl to each well and data were acquired by spectrophotometry at 490 nm. The percentage of dead cells was calculated using the formula [44]:% of dead cells = (exp. value − low control)/(high control − low control) × 100.

SW480 cells = experiment: LDH release assay, SW480; format: cell-based, human; conditions: SW480, 300 μM, 24 h
Protocol: as §3

CT26 cells [5] = experiment: Annexin V-FITC/PI double staining, flow cytometry, CT26; format: cell-based, mouse; conditions: CT26, IC50 concentrations, 24 h
Protocol: (§4) For the detection of apoptosis, the Annexin V binding capacity of treated cells was examined by flow cytometry using an Annexin V-fluorescein isothiocyanate (FITC) Detection Kit (BD Pharmingen, San Jose, CA, USA) according to the manufacturer’s protocol. […] Following the incubation, all cells were trypsinized, washed in PBS, centrifuged, and resuspended in 100 μL of ice-cold binding buffer (10× binding buffer: 0.1 M Hepes/NaOH (pH 7.4), 1.4 M NaCl, 25 mM CaCl2) at a concentration of 1 × 10^6/mL. Annexin V-FITC and propidium iodide (PI) were added to the 100 μL of cell suspension and incubated for 15 min at room temperature (25 °C) in the dark. After incubation, 400 μL of 1× binding buffer was added to each tube and stained cells were analyzed within 1 h using a flow cytometer FACS Calibur (BD Biosciences, San Jose, CA, USA). Data were analyzed using FlowJo Software version VX [45]. Measurements were presented as density plots of Annexin V-FITC and PI stainings.

HCT116 cells [6] = experiment: Annexin V-FITC/PI double staining, flow cytometry, HCT116; format: cell-based, human; conditions: HCT116, IC50 concentrations, 24 h
Protocol: as §4

CT26 cells [7] = experiment: Cell cycle analysis, CT26; format: cell-based, mouse; conditions: CT26, IC50 doses, 24 h
Protocol: (§5) Both the apoptosis induction and/or cell cycle arrest may reduce the viability of carcinoma cells. Thus, we next investigated the impact of ruthenium(II) terpyridine complexes on possible cell cycle disturbances in colon carcinoma cells.
(§6) Cell cycle analysis was performed with a Vybrant® DyeCycle™ Ruby stain (Thermo Fisher Scientific, Waltham, MA, USA) according to the manufacturer’s instructions. CT26, HCT116, and SW480 cells stained with Vybrant DyeCycle Ruby were analyzed by a Fluorescence-activated cell sorting (FACS) Calibur flow Cytometer (BD Biosciences, San Jose, CA, USA). The cell cycle distribution was analyzed using FlowJo software and the results were presented as histograms.

[8] = test system: syngeneic CT26 mouse colon carcinoma; experiment: Heterotopic CT26 colon carcinoma growth in mice; format: in vivo, BALB/c mice; conditions: 2 mg/kg i.p.; for tumor weights after necropsy versus vehicle-treated mice: four times in total; for tumor growth inhibition (TGI): four times in total from day six, last day of the experiment; for necrosis fields in primary tumor, histology: hematoxylin and eosin
Protocol: In view of the proven cytotoxic effects of ruthenium(II) terpyridine complexes in vitro, the next goal of the present study was to examine the ability of tested compounds to inhibit murine colon cancer growth and progression in vivo. CT26 cells were heterotopically implanted into the shaved flank of the mice.
Male BALB/c mice of 6–8 weeks of age were used in all experiments. Mice were housed in a temperature-controlled environment (22–24 °C) with a 12 h light–dark cycle and were given standard laboratory food and water ad libitum. […] All experiments were approved (01-8461/2) by, and conducted in accord with, the Guidelines of the Animal Ethics Committee of the Faculty of Medical Sciences of the University of Kragujevac (Kragujevac, Serbia).
The size of primary CT26 colon tumors were assessed morphometrically using electronic calipers in two dimensions. The tumor volume was calculated as follows: tumor volume (mm^3) = (L × W^2)/2, where L is the longest and W the shortest […] of the tumor in millimeters. Results were expressed as means of tumor volumes ± SD. The percent tumor growth inhibition (TGI) was determined according to the formula, TGI(%) = (Vc − Vt)/(Vc − Vo) × 100, where Vc − Vt are the median of control and treated groups at the end of the study and Vo at the start.

[9] = Systemic toxicity in CT26 tumor-bearing mice (body and organ weight, serum biochemistry, histopathology); conditions: 2 mg/kg i.p.
Protocol: Finally, in order to examine the safety of ruthenium(II) terpyridine complexes in vivo, the mice’s body weight was measured before tumor cell inoculation and at the end of experiment. The toxicity associated with ruthenium(II) terpyridine complexes treatment was assessed at biochemical and histopathological levels. The serum concentrations of the biochemical markers ALT, AST, urea, and creatinine were obtained to evaluate the liver and renal functions. In addition, the histopathological changes in the target organs, liver, heart, lungs, and kidneys were evaluated.
BALB/c mice bearing syngeneic CT26 mouse colon carcinoma were selected as the test system, as this experimental model has been extensively used for this kind of research in the literature [47]. For heterotopic colon carcinoma model, 1 × 10^6 CT26 cells suspended in 100 μL of DMEM were injected subcutaneously into the left flank of mice. Tumor-bearing mice were examined every 3 days for tumor development and progression and monitoring body weight. Animals were randomized into 4 groups with 6 tumor-bearing mice that were ear-tagged and followed-up individually throughout the study. The intraperitoneal administration of complexes or saline began on sixth day after post-tumor inoculation. Each drug was administered at doses of 2 mg/kg dissolved in 200 μL saline, twice weekly for four times in total (Scheme 2).
To study the potential side effects of ruthenium(II) terpyridine complexes, treated mice were monitored for weight loss. […] Blood samples were collected from abdominal aorta of each mouse in tubes without anticoagulant, and a separated serum was processed and analyzed by the chemistry analyzer Roche Cobas Mira Plus. The levels of serum urea, creatinine, and liver enzymes—aspartate aminotransferase (AST) and alanine aminotransferase (ALT)—were determined to assess the renal and hepatic function. After sacrificed, organ weights of the heart, liver, lungs, and kidneys, as well as the tumors, were determined for each animal, and the relative organ weight was calculated as % body weight. The tissue sections of various organs (heart, liver, lungs, and kidneys) and tumor were isolated for histopathological analysis. The tissues fixed in 4% paraformaldehyde were embedded in paraffin, cut into thin sections and mounted on glass slides. The tissue sections were stained with hematoxylin and eosin for microscopic examination.

CT26 cells [10] = experiment: LDH release assay, CT26; format: cell-based, mouse; conditions: CT26, 300 μM, 24 h
Protocol: as §3

HCT116 cells [11] = experiment: Cell cycle analysis, HCT116; format: cell-based, human; conditions: HCT116, IC50 doses, 24 h
Protocol: as §5, §6

[12] = Behaviour in aqueous solution by 1H NMR in D2O; format: physicochemical; conditions: ambient temperature, forms aqua species
Protocol: (§7) These new resonances, which grew at the expense of those of the parent compound, were attributed to the aqua species [Ru(Cl-tpy)(en)(OH2)]^2+ (1aq) and [Ru(Cl-tpy)(dach)(OH2)]^2+ (2aq), respectively (Scheme 1).
(§8) The compounds [Ru(Cl-tpy)(en)Cl][Cl] […] All other chemicals were used as purchased without further purification. NMR spectra were recorded on a Varian Gemini 200 MHz spectrometer. All chemical shifts were referenced to TSP (trimethylsilylpropionic acid) at d = 0.00. All NMR spectra were run at 295 K.

[13] = Interaction with glutathione by 1H NMR in D2O; conditions: 10 mM in D2O, GSH added to equilibrated solution
Protocol: as §7
The addition of GSH to an equilibrated solution of Ru-1 (10 mM) in D2O induced very slow changes in the ^1H NMR spectrum (Figure 2). A new set of resonances, attributable to the thiolate adduct [Ru(Cl-tpy)(en)(GS-S)] (3), became apparent in the ^1H NMR spectrum after 6 h. […] (4).
as §8

[14] = parameters: method as in PMID 26855406; conditions: cited from earlier work
[15] = test system: HeLa, A549 and MRC-5 cells; parameters: method as in PMID 26855406, PMID 28088012; conditions: previously conducted study; read-out: IC50, range over HeLa, A549 and MRC-5; cited from earlier work

Structure (SMILES) | IC50 ([1]; 24 h exposure) [µM] | IC50 ([1]; 72 h exposure) [µM] | IC50 ([2]; 24 h exposure) [µM] | IC50 ([2]; 72 h exposure) [µM] | IC50 ([3]; 24 h exposure) [µM] | IC50 ([3]; 72 h exposure) [µM] | LDH levels (LDH release, % of dead cells) (HCT116 cells [4]) [%] | LDH levels (LDH release, % of dead cells) (SW480 cells) [%] | late apoptosis in HCT116 cells, in words (HCT116 cells [6]) | cell cycle disturbance (CT26 cells [7]) | tumor weights after necropsy versus vehicle-treated mice [8] | tumor growth inhibition (TGI) [8] [%] | necrosis fields in primary tumor, histology [8] | serum concentration of creatinine ([9]; tumor-bearing mice) | serum level of ALT ([9]; tumor-bearing mice) | serum level of AST compared to the control group ([9]; tumor-bearing mice) | lability of the chloride ligand in aqueous solution [12] | IC50 [15] [µM] | other results
O=C1[O][Pt]2([NH][C@@H]3CCCC[C@H]3[NH]2)[O]C1=O [Oxaliplatin, oxaliplatin, reference compound] | 54.5 ± 4 | 25.2 ± 2 | 9.7 ± 8 | 0.1 | 100 ± 9 | 1.3 | 0 | 2.20 | induced late apoptosis | G2/M phase arrest | markedly lower | 51.39 | no greater than the necrosis field in untreated mice tumors | did not affect | no difference | no difference | – | – | apoptotic death of CT26 tumor cells, in words (CT26 cells [5]): moderately induced apoptotic death
Clc1cc(-c2ccccn2)nc(-c2ccccn2)c1.NCCN.[Cl-].[Cl-].[Ru+2] [Ru-1, [Ru(Cl-tpy)(en)Cl][Cl]] | 43.3 ± 3 | 50.9 ± 4 | 31.8 ± 2 | 19.1 ± 1 | 50.4 ± 4 | 44.7 ± 4 | 8.37 | – | induced late apoptosis | G2/M phase arrest | markedly lower | 53.41 | The largest part of the primary tumor of Ru-1-treated mice was necrotic | did not affect | – | – | very labile | 32.8 to 66.3 | LDH levels (LDH release, % of dead cells) (CT26 cells [10]): 36.43%; cell cycle disturbance (HCT116 cells [11]): G2/M phase arrest; time after which thiolate adduct with GSH became apparent in 1H NMR [13]: 6 h; log Po/w [14]: −1.33; histological changes in kidney tissue [9]: hyaline cylinders and focal hyaline glomerular change; serum concentration of urea compared to saline-treated mice ([9]; tumor-bearing mice): did not affect; histological changes in heart tissue ([9]; in comparison with oxaliplatin and saline-treated mice): No significant histological changes
Clc1cc(-c2ccccn2)nc(-c2ccccn2)c1.NC1CCCCC1N.[Cl-].[Cl-].[Ru+2] [Ru-2, [Ru(Cl-tpy)(dach)Cl][Cl]] | 167 ± 12 | 148 ± 11 | 50.4 ± 5 | 20.4 ± 1 | 156 ± 12 | 86.4 ± 7 | 2.35 | 33.07 | – | – | slightly smaller than tumors from the control group, but without statistical significance | 17.56 | larger compared to necrosis fields in the tumors of untreated mice and oxaliplatin-treated mice | – | no difference | no difference | very labile | 72.8 to 111 | serum urea concentration, excess compared to all other groups ([9]; tumor-bearing mice): ~ 3 units
